This is an account of results in PubChem BioAssay AID220 (DTP/NCI, 2004).

In the assay the test system is CD8F1 mice, subcutaneous mammary adenocarcinoma, T/C%. Nature of the assay: NCI In Vivo Anticancer Drug Screen. Data for tumor model Mammary Adenocarcinoma CD8F1 (subcutaneous) in CD8F1. As to conditions: higher = larger tumour. In short, it runs like this:
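Compound-treated versus vehicle-treated mice with transplantable tumors; survival or tumor size compared as T/C.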

Setting [1] is: endpoint: median tumor weight (est.), dose: 12.5 mg/kg/injection, schedule: Q07DX005 (ip), vehicle: saline with Tween-80.
Where [2] appears, read: endpoint: median tumor weight (est.), dose: 25.0 mg/kg/injection, schedule: Q07DX005 (ip), vehicle: saline with Tween-80.
[3] abbreviates: endpoint: median tumor weight (est.), dose: 100.0 mg/kg/injection, schedule: Q07DX005 (ip), vehicle: saline with Tween-80.
The mark [4] stands for this setting: endpoint: median tumor weight change, dose: 250.0 mg/kg/injection, schedule: Q01DX001 (ip), vehicle: saline with Tween-80.
The mark [5] stands for this setting: endpoint: median tumor weight change, dose: 500.0 mg/kg/injection, schedule: Q01DX001 (ip), vehicle: saline with Tween-80.
Where [6] appears, read: endpoint: median tumor weight change, dose: 1000.0 mg/kg/injection, schedule: Q01DX001 (ip), vehicle: saline with Tween-80.
Setting [7] is: endpoint: median tumor weight change, dose: 250.0 mg/kg/injection, schedule: Q01DX001 (ip), vehicle: Klucel (hydroxypropylcellulose) (HPC).
Setting [8] is: endpoint: median tumor weight (est.), dose: 12.5 mg/kg/injection, schedule: Q07DX005 (ip), vehicle: saline.

“And” between values parts separate entries of the source, which are not always exact repeats. Equal entries are not always repeated. Records with an inconclusive call do not appear.

In the case of `BrC1CC(Br)c2c1c1c(c3c2C(Br)CC3Br)C(Br)CC1Br` (stereo not drawn), the T/C is 87 % of control under setting [1]; 210 % of control and 98 % of control under setting [2]; 86 % of control under setting [3]; 71 % of control and 75 % of control (endpoint: median tumor weight (est.), dose: 200.0 mg/kg/injection, schedule: Q07DX005 (ip), vehicle: saline with Tween-80); 40 % of control (endpoint: median tumor weight (est.), dose: 400.0 mg/kg/injection, schedule: Q07DX005 (ip), vehicle: saline with Tween-80); 85 % of control under setting [4]. For the same compound, the T/C was 88 % of control under setting [5]; 59 % of control under setting [6]; 51 % of control (endpoint: median tumor weight change, dose: 2000.0 mg/kg/injection, schedule: Q01DX001 (ip), vehicle: saline with Tween-80).
For the compound `CCCCCCCCCCCCSC1=C(Cl)C(=O)C(OC)=C(OC)C1=O`, the T/C is, setting by setting: under setting [2], 89 % of control; under setting [3], 70 % of control.
Take `O=C(O)c1ccc(C(=O)O)c(C(=O)O)c1.[NH-]C1CCCCC1[NH-].[Pt+2]`: the T/C reads like this: (endpoint: median tumor weight (est.), dose: 1.56 mg/kg/injection, schedule: Q07DX005 (ip), vehicle: sodium bicarbonate) 38 % of control; (endpoint: median tumor weight (est.), dose: 3.12 mg/kg/injection, schedule: Q07DX005 (ip), vehicle: sodium bicarbonate) 24 % of control; (endpoint: median tumor weight (est.), dose: 6.25 mg/kg/injection, schedule: Q07DX005 (ip), vehicle: sodium bicarbonate) 11 % of control; (endpoint: median tumor weight (est.), dose: 12.5 mg/kg/injection, schedule: Q07DX005 (ip), vehicle: sodium bicarbonate) 11 % of control; (endpoint: median tumor weight (est.), dose: 25.0 mg/kg/injection, schedule: Q07DX005 (ip), vehicle: sodium bicarbonate) 32 % of control.
Regarding `N[C@H](C(=O)O)[C@@H]1CC(Cl)=NO1`, the T/C (endpoint: median tumor weight (est.), dose: 1.0 mg/kg/injection, schedule: Q07DX005 (ip), vehicle: saline) was 167 % of control; the T/C (endpoint: median tumor weight (est.), dose: 2.0 mg/kg/injection, schedule: Q07DX005 (ip), vehicle: saline) is 92 % of control and 100 % of control and 101 % of control; the T/C (endpoint: median tumor weight (est.), dose: 128.0 mg/kg/injection, schedule: Q07DX005 (ip), vehicle: saline) was 13 % of control.
Take `Nc1nc(Br)nc2c1ncn2C1CC(O)C(CO)O1` (stereo not drawn): the T/C was 112 % of control (endpoint: median tumor weight change, dose: 7.5 mg/kg/injection, schedule: Q03HX009 (ip), vehicle: saline); 99 % of control (endpoint: median tumor weight change, dose: 15.0 mg/kg/injection, schedule: Q03HX009 (ip), vehicle: saline); 51 % of control (endpoint: median tumor weight change, dose: 30.0 mg/kg/injection, schedule: Q03HX009 (ip), vehicle: saline); 54 % of control (endpoint: median tumor weight change, dose: 60.0 mg/kg/injection, schedule: Q03HX009 (ip), vehicle: saline); 31 % of control (endpoint: median tumor weight change, dose: 120.0 mg/kg/injection, schedule: Q03HX009 (ip), vehicle: saline).
`CN=C(NC#N)NCCSCc1nc[nH]c1C`: the T/C under setting [7] is 57 % of control.
With `COc1cc2c(ccc3c4cc(OC)c(OC)cc4c[n+](C)c23)cc1O`, the T/C by setting is: (endpoint: median tumor weight change, dose: 250.0 mg/kg/injection, schedule: Q01DX001 (ip), vehicle: saline) 190 % of control; (endpoint: median tumor weight change, dose: 1000.0 mg/kg/injection, schedule: Q01DX001 (ip), vehicle: saline) 89 % of control; (endpoint: median tumor weight change, dose: 2000.0 mg/kg/injection, schedule: Q01DX001 (ip), vehicle: saline) 121 % of control.
Take `CCC1=C[C@H]2CN(CCc3c([nH]c4ccccc34)[C@@](C(=O)OC)(c3cc4c(cc3OC)N(C)[C@H]3[C@@](O)(C(=O)OC)[C@H](OC(C)=O)[C@]5(CC)C=CCN6CC[C@]43[C@@H]65)C2)C1`: the T/C by setting is: (endpoint: median tumor weight change, dose: 4.0 mg/kg/injection, schedule: Q01DX001 (ip), vehicle: water) 100 % of control; (endpoint: median tumor weight change, dose: 8.0 mg/kg/injection, schedule: Q01DX001 (ip), vehicle: water) 36 % of control.
Regarding `COC1C(CO)OC(n2cnc3c(=S)nc(N)[nH]c32)C1O` (stereo not drawn), the T/C is 109 % of control (endpoint: median tumor weight (est.), dose: 12.5 mg/kg/injection, schedule: Q07DX005 (ip), vehicle: Klucel (hydroxypropylcellulose) (HPC)); 116 % of control (endpoint: median tumor weight (est.), dose: 25.0 mg/kg/injection, schedule: Q07DX005 (ip), vehicle: Klucel (hydroxypropylcellulose) (HPC)); 112 % of control (endpoint: median tumor weight (est.), dose: 50.0 mg/kg/injection, schedule: Q07DX005 (ip), vehicle: Klucel (hydroxypropylcellulose) (HPC)); 79 % of control (endpoint: median tumor weight (est.), dose: 100.0 mg/kg/injection, schedule: Q07DX005 (ip), vehicle: Klucel (hydroxypropylcellulose) (HPC)); 28 % of control (endpoint: median tumor weight (est.), dose: 200.0 mg/kg/injection, schedule: Q07DX005 (ip), vehicle: Klucel (hydroxypropylcellulose) (HPC)); 22 % of control (endpoint: median tumor weight (est.), dose: 400.0 mg/kg/injection, schedule: Q07DX005 (ip), vehicle: Klucel (hydroxypropylcellulose) (HPC)).
Take `Nc1ccc(S(N)(=O)=O)cc1`: the T/C by setting is: (endpoint: median tumor weight change, dose: 62.5 mg/kg/injection, schedule: Q01DX001 (ip), vehicle: saline with Tween-80) 112 % of control; (endpoint: median tumor weight change, dose: 125.0 mg/kg/injection, schedule: Q01DX001 (ip), vehicle: saline with Tween-80) 110 % of control; under setting [4], 88 % of control; under setting [5], 64 % of control; under setting [6], 124 % of control.
On to `C[Si](C)(C)OSc1ccccc1[N+](=O)[O-]`, for which the T/C (endpoint: median tumor weight change, dose: 125.0 mg/kg/injection, schedule: Q01DX001 (ip), vehicle: Klucel (hydroxypropylcellulose) (HPC)) was 158 % of control; the T/C under setting [7] is 120 % of control; the T/C (endpoint: median tumor weight change, dose: 500.0 mg/kg/injection, schedule: Q01DX001 (ip), vehicle: Klucel (hydroxypropylcellulose) (HPC)) is 93 % of control; the T/C (endpoint: median tumor weight change, dose: 1000.0 mg/kg/injection, schedule: Q01DX001 (ip), vehicle: Klucel (hydroxypropylcellulose) (HPC)) was 120 % of control; the T/C (endpoint: median tumor weight change, dose: 2000.0 mg/kg/injection, schedule: Q01DX001 (ip), vehicle: Klucel (hydroxypropylcellulose) (HPC)) was 97 % of control.
Turning to `c1ccc([C@H]2CN3CCSC3=N2)cc1`, the T/C is 107 % of control (endpoint: mean tumor weight, dose: 12.5 mg/kg/injection, schedule: Q07DX005 (ip), vehicle: saline); 105 % of control (endpoint: mean tumor weight, dose: 25.0 mg/kg/injection, schedule: Q07DX005 (ip), vehicle: saline); 92 % of control under setting [8].
`CCOC(=O)NC1=C(N2CC2)C(=O)C(NC(=O)OCC)=C(N2CC2)C1=O`: the T/C (endpoint: median tumor weight (est.), dose: 0.78 mg/kg/injection, schedule: Q07DX005 (ip), vehicle: saline) is 36 % of control; the T/C (endpoint: median tumor weight (est.), dose: 1.56 mg/kg/injection, schedule: Q07DX005 (ip), vehicle: saline with Tween-80) is 53 % of control; the T/C (endpoint: median tumor weight (est.), dose: 1.56 mg/kg/injection, schedule: Q07DX005 (ip), vehicle: saline) is 36 % of control; the T/C (endpoint: median tumor weight (est.), dose: 3.12 mg/kg/injection, schedule: Q07DX005 (ip), vehicle: saline with Tween-80) was 59 % of control; the T/C (endpoint: median tumor weight (est.), dose: 3.12 mg/kg/injection, schedule: Q07DX005 (ip), vehicle: saline) is 56 % of control; the T/C (endpoint: median tumor weight (est.), dose: 6.25 mg/kg/injection, schedule: Q07DX005 (ip), vehicle: saline with Tween-80) was 25 % of control. The T/C is 25 % of control (endpoint: median tumor weight (est.), dose: 6.25 mg/kg/injection, schedule: Q07DX005 (ip), vehicle: saline); 11 % of control under setting [1]; 23 % of control under setting [8]; 33 % of control (endpoint: median tumor weight change, dose: 2.5 mg/kg/injection, schedule: Q01DX001 (ip), vehicle: saline); 81 % of control (endpoint: median tumor weight change, dose: 2.5 mg/kg/injection, schedule: Q01DX001 (ip), vehicle: suspension in saline); 43 % of control (endpoint: median tumor weight change, dose: 5.0 mg/kg/injection, schedule: Q01DX001 (ip), vehicle: saline). The T/C (endpoint: median tumor weight change, dose: 5.0 mg/kg/injection, schedule: Q01DX001 (ip), vehicle: suspension in saline) was 80 % of control; the T/C (endpoint: median tumor weight change, dose: 10.0 mg/kg/injection, schedule: Q01DX001 (ip), vehicle: saline with Tween-80) was 16 % of control and 31 % of control; the T/C (endpoint: median tumor weight change, dose: 10.0 mg/kg/injection, schedule: Q01DX001 (ip), vehicle: saline) is 32 % of control; the T/C (endpoint: median tumor weight change, dose: 10.0 mg/kg/injection, schedule: Q01DX001 (ip), vehicle: suspension in saline) was 52 % of control; the T/C (endpoint: median tumor weight change, dose: 20.0 mg/kg/injection, schedule: Q01DX001 (ip), vehicle: saline with Tween-80) was -14 % of control; the T/C (endpoint: median tumor weight change, dose: 20.0 mg/kg/injection, schedule: Q01DX001 (ip), vehicle: saline) is 11 % of control. The T/C (endpoint: median tumor weight change, dose: 20.0 mg/kg/injection, schedule: Q01DX001 (ip), vehicle: suspension in saline) was 19 % of control.
